Assay type in all cases: functional
Assay [1] deals with T1, G-protein coupled receptor 55 (Homo sapiens, UniProt Q9Y2T6). Description: GPR55 agonists via beta-arrestin recruitment, primary screen, imaging, U2OS cells, beta-arrestin-GFP redistribution (AID 1961). (In general: Activated receptors often draw arrestin, which recruitment assays turn into a signal.)
In assay [2] the target is T2, Cannabinoid receptor 2 (Homo sapiens, UniProt P34972). Description: SAR analysis of antagonists of the Cannabinoid Receptor 2 using an Image-Based Assay - Set 2. [Related pubchem assays (depositor defined):AID1961, AID1965].
T2 sequence (P34972 whole entry): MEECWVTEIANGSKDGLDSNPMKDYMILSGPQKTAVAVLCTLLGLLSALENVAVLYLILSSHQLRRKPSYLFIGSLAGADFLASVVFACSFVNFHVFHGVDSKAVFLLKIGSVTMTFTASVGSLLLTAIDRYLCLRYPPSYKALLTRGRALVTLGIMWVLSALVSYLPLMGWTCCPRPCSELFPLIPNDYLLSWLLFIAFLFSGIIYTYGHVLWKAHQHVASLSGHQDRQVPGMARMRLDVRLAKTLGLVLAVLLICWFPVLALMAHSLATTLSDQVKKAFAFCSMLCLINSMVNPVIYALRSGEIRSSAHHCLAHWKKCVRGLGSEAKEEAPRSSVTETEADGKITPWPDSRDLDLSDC
In assay [3] the target is T2, Cannabinoid receptor 2. Kind of assay: SAR analysis of agonists of the Cannabinoid Receptor 2 using an Image-Based Assay - Set 2. [Related pubchem assays (depositor defined):AID1961, AID1965].
Assay [4] concerns the target T3, Tyrosine-protein phosphatase non-receptor type 7 (Homo sapiens, UniProt P35236).
T3 sequence (P35236 whole entry): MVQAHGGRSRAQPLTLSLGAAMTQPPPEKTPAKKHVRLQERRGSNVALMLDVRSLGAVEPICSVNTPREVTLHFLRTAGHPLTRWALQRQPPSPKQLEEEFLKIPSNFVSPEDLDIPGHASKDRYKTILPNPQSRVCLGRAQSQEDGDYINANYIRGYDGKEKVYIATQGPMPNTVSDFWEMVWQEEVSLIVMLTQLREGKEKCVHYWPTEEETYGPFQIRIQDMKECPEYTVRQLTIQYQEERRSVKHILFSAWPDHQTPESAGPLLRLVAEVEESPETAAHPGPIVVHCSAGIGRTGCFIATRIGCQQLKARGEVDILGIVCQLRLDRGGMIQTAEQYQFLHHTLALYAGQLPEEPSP
Kind of assay: SAR analysis of chemical inhibitors of HePTP using a Fluorescent assay - Set 2. [Related pubchem assays (depositor defined):AID1059, AID1077, AID1661, AID2085, AID521].

Assay [5] has as its target T1, G-protein coupled receptor 55. Kind of assay: SAR analysis of selective Agonists of GPR55 using an Image-Based Assay. [Related pubchem assays (depositor defined):AID1961, AID1965].
For assay [6], the target named is Cannabinoid receptor 1 (Homo sapiens, UniProt P21554). Description: SAR analysis of antagonists of the Cannabinoid Receptor 1 using an Image-Based Assay. [Related pubchem assays (depositor defined):AID1961, AID1965].
Sequence of Cannabinoid receptor 1 (P21554 whole entry): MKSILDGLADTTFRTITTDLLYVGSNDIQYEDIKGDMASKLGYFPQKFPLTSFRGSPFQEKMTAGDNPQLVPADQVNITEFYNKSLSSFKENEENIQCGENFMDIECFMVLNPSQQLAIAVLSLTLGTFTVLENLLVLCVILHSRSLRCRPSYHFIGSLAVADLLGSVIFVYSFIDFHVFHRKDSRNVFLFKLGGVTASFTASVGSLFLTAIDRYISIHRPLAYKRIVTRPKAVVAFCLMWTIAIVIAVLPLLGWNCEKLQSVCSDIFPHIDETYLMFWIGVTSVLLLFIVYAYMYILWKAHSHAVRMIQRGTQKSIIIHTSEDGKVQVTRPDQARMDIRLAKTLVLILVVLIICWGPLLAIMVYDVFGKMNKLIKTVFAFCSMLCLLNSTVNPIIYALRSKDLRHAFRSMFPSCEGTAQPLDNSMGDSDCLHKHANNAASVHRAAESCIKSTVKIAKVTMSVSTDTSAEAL
Assay [7] addresses Dual specificity protein phosphatase 3 (Homo sapiens, UniProt P51452). Description: SAR VHR1 Fluorescent Assay for In Vitro dose response studies Set 2. [Related pubchem assays (depositor defined):AID1654, AID1661, AID1878].
Assay [8] addresses Sphingosine 1-phosphate receptor 1 (Homo sapiens, UniProt P21453). Kind of assay: Fluorescence-based counterscreen assay for S1P4 agonists: Cell-based dose response high throughput screening assay to identify agonists of the Sphingosine 1-Phosphate Receptor 1 (S1P1). [Related pubchem assays (depositor defined):AID1509, AID1523, AID1801, AID463107, AID463118, AID463119, AID463122, AID463123, AID463129, AID463225, AID504400, AID504460]. In general terms: A counterscreen serves to expose hits that act by an unwanted route or on another target.

Assay [9] is described as follows: cytotoxicity in HPDE-C7 cells, cell-based, fluorescence, HTS (AID 430). Particulars: Homo sapiens.
Assay [10] is described as follows: cytotoxicity in KRAS-transformed pancreatic duct cells, primary screen, cell-based, fluorescence, HTS (AID 431).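 Note: cell line used: HPDE-C7K.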 The note with it: Homo sapiens.
The target of assay [11] is Sphingosine 1-phosphate receptor 4 (Homo sapiens, UniProt O95977). Kind of assay: Fluorescence dose response cell-based high throughput screening assay for agonists of the Sphingosine 1-Phosphate Receptor 4 (S1P4). [Related pubchem assays: 1509 (Primary screen.), 1523 (Confirmation screen in triplicates.)].
Sequence of Sphingosine 1-phosphate receptor 4 (O95977 whole entry): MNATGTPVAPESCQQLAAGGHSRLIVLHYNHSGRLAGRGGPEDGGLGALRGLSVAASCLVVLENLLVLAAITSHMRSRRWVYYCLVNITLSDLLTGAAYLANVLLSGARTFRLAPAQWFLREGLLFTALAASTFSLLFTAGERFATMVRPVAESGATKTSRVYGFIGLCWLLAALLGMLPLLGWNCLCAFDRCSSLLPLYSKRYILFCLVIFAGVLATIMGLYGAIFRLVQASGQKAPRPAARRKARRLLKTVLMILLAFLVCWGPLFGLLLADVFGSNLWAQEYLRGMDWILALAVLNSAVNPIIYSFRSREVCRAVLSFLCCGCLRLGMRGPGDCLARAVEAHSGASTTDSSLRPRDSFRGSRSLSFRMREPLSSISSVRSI
In assay [12] the target is Sphingosine 1-phosphate receptor 2 (Homo sapiens, UniProt O95136). Kind of assay: Dose Response Cell Based Assay for Agonists of the S1P2 Receptor. [Related pubchem assays: 729, 736, 843 ].
Sequence of Sphingosine 1-phosphate receptor 2 (O95136 whole entry): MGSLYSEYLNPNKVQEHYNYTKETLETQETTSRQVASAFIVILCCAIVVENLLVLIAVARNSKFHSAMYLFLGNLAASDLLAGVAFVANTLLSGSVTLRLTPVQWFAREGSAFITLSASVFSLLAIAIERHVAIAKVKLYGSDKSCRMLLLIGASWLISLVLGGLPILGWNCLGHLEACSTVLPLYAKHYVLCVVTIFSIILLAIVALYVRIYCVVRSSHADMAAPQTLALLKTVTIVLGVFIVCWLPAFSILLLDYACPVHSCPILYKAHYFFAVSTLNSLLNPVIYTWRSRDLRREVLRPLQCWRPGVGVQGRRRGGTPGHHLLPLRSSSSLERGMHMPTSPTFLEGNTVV
Assay [13] deals with T4, Short transient receptor potential channel 4 (Mus musculus, UniProt Q9QUQ5).
T4 sequence (Q9QUQ5 whole entry): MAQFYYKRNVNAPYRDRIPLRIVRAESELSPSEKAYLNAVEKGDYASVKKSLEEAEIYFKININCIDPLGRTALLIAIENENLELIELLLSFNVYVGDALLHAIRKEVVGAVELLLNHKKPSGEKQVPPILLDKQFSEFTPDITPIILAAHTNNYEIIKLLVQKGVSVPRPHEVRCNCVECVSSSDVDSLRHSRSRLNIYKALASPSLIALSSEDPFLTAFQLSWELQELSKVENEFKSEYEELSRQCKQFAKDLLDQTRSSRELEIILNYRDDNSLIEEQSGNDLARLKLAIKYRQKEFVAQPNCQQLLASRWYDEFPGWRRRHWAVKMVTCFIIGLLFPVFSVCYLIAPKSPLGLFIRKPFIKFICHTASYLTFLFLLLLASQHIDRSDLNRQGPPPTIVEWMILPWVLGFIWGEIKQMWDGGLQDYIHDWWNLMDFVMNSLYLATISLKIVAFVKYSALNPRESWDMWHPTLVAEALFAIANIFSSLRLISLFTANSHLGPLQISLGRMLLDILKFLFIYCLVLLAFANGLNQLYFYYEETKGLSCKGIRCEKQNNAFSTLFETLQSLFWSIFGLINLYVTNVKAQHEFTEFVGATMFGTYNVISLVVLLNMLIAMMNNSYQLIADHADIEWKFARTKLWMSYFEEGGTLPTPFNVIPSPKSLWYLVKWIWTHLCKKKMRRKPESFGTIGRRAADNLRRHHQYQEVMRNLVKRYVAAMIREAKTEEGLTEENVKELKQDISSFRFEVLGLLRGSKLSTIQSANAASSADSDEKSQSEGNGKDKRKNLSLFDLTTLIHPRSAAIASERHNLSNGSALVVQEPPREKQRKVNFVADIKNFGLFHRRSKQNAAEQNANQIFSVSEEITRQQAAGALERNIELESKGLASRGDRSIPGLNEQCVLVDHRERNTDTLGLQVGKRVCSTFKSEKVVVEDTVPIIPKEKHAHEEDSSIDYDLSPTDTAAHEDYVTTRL
Kind of assay: mouse TRPC4 channel activators, dose response, cell-based, HEK293 TRPC4/mu-opioid, Fluo-4 calcium (AID 434937).

The source made the active and inactive calls.

T1 sequence (Q9Y2T6 whole entry): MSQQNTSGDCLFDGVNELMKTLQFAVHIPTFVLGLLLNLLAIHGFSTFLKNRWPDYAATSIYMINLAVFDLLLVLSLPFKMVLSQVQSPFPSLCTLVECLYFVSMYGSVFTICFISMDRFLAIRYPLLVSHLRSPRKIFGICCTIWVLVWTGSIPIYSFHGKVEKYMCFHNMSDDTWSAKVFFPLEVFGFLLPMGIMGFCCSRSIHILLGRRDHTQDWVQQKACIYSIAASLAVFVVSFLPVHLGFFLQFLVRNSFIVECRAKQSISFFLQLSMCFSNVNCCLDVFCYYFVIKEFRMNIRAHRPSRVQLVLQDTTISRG
Sequence of Dual specificity protein phosphatase 3 (P51452 whole entry): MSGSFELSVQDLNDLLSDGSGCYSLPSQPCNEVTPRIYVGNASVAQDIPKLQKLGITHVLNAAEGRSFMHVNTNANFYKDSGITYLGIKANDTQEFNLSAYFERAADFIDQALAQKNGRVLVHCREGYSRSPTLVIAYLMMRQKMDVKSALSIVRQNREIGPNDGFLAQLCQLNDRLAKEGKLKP
Sequence of Sphingosine 1-phosphate receptor 1 (P21453 whole entry): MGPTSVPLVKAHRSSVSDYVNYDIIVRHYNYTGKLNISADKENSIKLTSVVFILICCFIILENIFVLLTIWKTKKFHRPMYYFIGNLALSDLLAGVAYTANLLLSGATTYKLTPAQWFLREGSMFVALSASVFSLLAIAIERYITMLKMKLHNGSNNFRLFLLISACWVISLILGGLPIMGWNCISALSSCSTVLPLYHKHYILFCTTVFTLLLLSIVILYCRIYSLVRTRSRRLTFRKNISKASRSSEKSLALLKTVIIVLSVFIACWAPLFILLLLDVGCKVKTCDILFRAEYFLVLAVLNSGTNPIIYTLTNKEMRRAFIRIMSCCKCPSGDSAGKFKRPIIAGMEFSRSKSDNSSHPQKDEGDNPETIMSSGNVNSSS

Broadly, the EC50 is the midpoint of the concentration-response curve. Broadly, the IC50 is the point on the concentration scale where inhibition reaches its midpoint. `C=CCN(CC=C)S(=O)(=O)c1ccc(NC(=S)NC(=O)c2ccc(-c3ccccc3)cc2)cc1`: the EC50 was < 0.5 µM (active) in assay [1], > 32 µM (inactive) in [3] and 0.2 µM (active) in [5]. The IC50 is > 32 µM (inactive) in assay [2], > 100 µM (inactive) in assay [4], > 32 µM (inactive) in [6] and > 100 µM (inactive) in assay [7].
On to `Clc1ccc2nc(N3CCNCC3)nc(-c3ccccc3)c2c1`, for which the EC50 in assay [8] is > 49.8 µM (inactive); in assay [9], 8.03 µM (active); in assay [10] it was 4.64 µM (active); in assay [11] it was > 49.8 µM (not active); in [12], 1.34 µM (active); in assay [13] it was 5.96 µM (active).

The values above are taken from ChEMBL document CHEMBL1201862, “PubChem BioAssay data set” (2004).
